From patent US20190030053A1, “COMPOSITION FOR INCREASING EXPRESSION OF PGC-1alpha” (BENEBIOSIS CO., LTD., priority 2016, published 2019)

Key:
3T3-L1 adipocytes = experiment: Oil-Red O staining of intracellular fat in differentiated adipocytes; format: cell-based; conditions: differentiated 3T3-L1 adipocytes, 0.01-10 mM, 10 days
Description: 3T3-L1 adipocytes were purchased from Korean Cell Line Bank. For the culture and maintenance of 3T3-L1 adipocytes, the cells were subcultured in Dulbecco's modified Eagle's medium (DMEM, Welgene, Korea) supplemented with 10% bovin calf serum (FCS, Welgene, Korea) in a 5% CO2 incubator at 37° C. 3T3-L1 adipocytes were divided into six groups as follows: NT; Normal differentiated cell group (control group), sialyllactose test group; 1, 10, 100, 1000, and 10000 μM test groups treated with sialyllactose (SL, Sigma-Aldrich, USA). For cell differentiation, the cells were dispensed in 6-well plates at a density of 2×10^5 cells per well, and grown to 100% confluency. […]
After differentiation in 6-well plates, 3T3-L1 adipocytes treated with […] or 6’-sialyllactose were washed two times with PBS, and then 2 ml of 10% formalin (Sigma-Aldrich, USA) was added thereto to fix the adipocytes at room temperature for 10 minutes. […] Thereafter, 1 ml of 100% isopropanol (Sigma-Aldrich, USA) was added to effuse stained adipocytes, and then the amount of accumulated fat was measured using absorbance at 500 nm.

PGC-1α protein = PGC-1α protein expression in brain and hippocampus of old mouse models (western blot); format: in vivo; conditions: ICR mice, oral 0.1 mg/kg/day, 42 weeks
Description: In order to investigate the relative protein expression in the brain compared with before SL (3′-SL & 6′-SL) aministration, 4-week-old ICR mice were purchased from Central Lab Animal (Korea). Water was freely accessible, and a commercially available pellet feed (Dooyeul Biotech, Korea) was given for two weeks. […]
Sialyllactose or DW was orally administered daily. […] The dietary intake and body weight change were measured every 5 days. […]
In FIG. 2b, BB1 6′ represents 6′-SL. The “PGC-1α protein expression level” and “GAPDH protein expression level” in each site were quantified, and the relative ratio of the values, (PGC-1α protein expression level)/(GAPDH protein expression level) was numerically expressed for the control group, 3′-SL administration group, and 6′-SL administration group. […]

CC(=O)N[C@H]1[C@H]([C@H](O)[C@H](O)CO)O[C@@](OC[C@H]2O[C@@H](O[C@H]3[C@H](O)[C@@H](O)[C@H](O)O[C@@H]3CO)[C@H](O)[C@@H](O)[C@H]2O)(C(=O)O)C[C@@H]1O [6′-SL, α-NeuNAc-(2→6)-β-D-Gal-(1→4)-D-Glc]
intracellular fat (Oil Red O) (3T3-L1 adipocytes; listed as 6′-siallylactose): greatly reduced
intracellular fat (Oil Red O) (3T3-L1 adipocytes; listed as 6′-sialyllactose): significantly reduced intracellular fat
PGC-1α protein expression level (PGC-1α/GAPDH) vs negative control (PGC-1α protein): much higher
